Publication PMC10771525 (Communications Biology, 2024)

Experiments:
Assay type in all cases: cell-based, human
GPR119 = assay: GPCR panel (control), Arrestin, U2OS; conditions: reference agonist
EDG1 = assay: GPCR panel (control), Arrestin, CHO-K1; conditions: reference agonist
EDG3 = assay: GPCR panel (control), Arrestin, CHO-K1; conditions: reference agonist
EDG5 = assay: GPCR panel (control), Arrestin, CHO-K1; conditions: reference agonist
EDG6 = assay: GPCR panel (control), Arrestin, CHO-K1; conditions: reference agonist
EDG8 = assay: GPCR panel (control), Arrestin, CHO-K1; conditions: reference agonist
PTAFR = assay: GPCR panel (control), Arrestin, CHO-K1; conditions: reference agonist
CCR3 = assay: GPCR panel (control), Arrestin, CHO-K1; conditions: reference agonist
CCR7 = assay: GPCR panel (control), Arrestin, CHO-K1; conditions: reference agonist
CCR1 = assay: GPCR panel (control), Arrestin, CHO; conditions: reference agonist
CMKLR1 = assay: GPCR panel (control), Arrestin, CHO-K1; conditions: reference agonist
GPR1 = assay: GPCR panel (control), Arrestin, CHO-K1; conditions: reference agonist
XCR1 = assay: GPCR panel screening, cAMP assay, XCR1; conditions: reference agonist, XCR1, CHO
Experimental: The chemokine receptor XCR1, coupled to Gαi, was tested in cAMP assays.
Screening the GPCRs panels was performed by DiscoverX (Eurofins) using β-arrestin recruitment assays unless otherwise indicated (for details, see Supplementary Data 2). […]
chemokine receptors (CCR1, CCR2, CCR3, CCR4, CCR5, CCR6, CCR7, CCR8, CCR9, CCR10, CXCR1, CXCR2, CXCR3, CXCR4, CXCR5, CXCR6, and CX3CR1) versus their corresponding agonist at their determined EC80 (see Supplementary Data 2). CXCL14 was preincubated for 30 min, then the standard agonist for the investigated receptor was added, followed by another incubation for 90 min without washing step in between. The chemokine receptor XCR1, coupled to Gαi, was tested in cAMP assays. The readout was relative luminescence units (RLU). The percentage of inhibition was calculated using the following formula: % Inhibition = 100% x (1 - (mean RLU of CXCL14- mean RLU of vehicle control) / (mean RLU of EC80 control - mean RLU of vehicle control)). For further details see Supplementary Data 2.
(1 picture or pasted object on this page, not shown here)

CCR4 = assay: GPCR panel (control), Arrestin, CHO-K1; conditions: reference agonist
CCR10 = assay: GPCR panel (control), Arrestin, U2OS; conditions: reference agonist
CXCR6 = assay: GPCR panel (control), Arrestin, HEK-293; conditions: reference agonist, CXCR6, HEK-293, Arrestin
C5AR1 = assay: GPCR panel (control), Arrestin, CHO-K1; conditions: reference agonist
C5LR2 = assay: GPCR panel (control), Arrestin, CHO-K1; conditions: reference agonist
CCR8 = assay: GPCR panel (control), Arrestin, CHO-K1; conditions: reference agonist
PROKR1 = assay: GPCR panel (control), Arrestin, CHO-K1; conditions: reference agonist
PROKR2 = assay: GPCR panel (control), Arrestin, CHO-K1; conditions: reference agonist
CX3CR1 = assay: GPCR panel (control), Arrestin, CHO-K1; conditions: reference agonist

CCCCCCCC/C=C\CCCCCCCC(=O)NCCO [OEA]
EC50 (GPR119): 580 nM
EC80 (GPR119): 19000 nM

CCCCCCCCCCCCC/C=C/[C@@H](O)[C@@H](N)COP(=O)(O)O [Sphingosine-1-phosphate]
EC50 (EDG1): 53 nM
EC80 (EDG1): 1300 nM
EC50 (EDG3): 190 nM
EC80 (EDG3): 5200 nM
EC50 (EDG5): 260 nM
EC80 (EDG5): 11000 nM
EC50 (EDG6): 110 nM
EC80 (EDG6): 4800 nM
EC50 (EDG8): 26 nM
EC80 (EDG8): 2400 nM

CCCCCCCCCCCCCCCCOC[C@H](COP(=O)([O-])OCC[N+](C)(C)C)OC(C)=O [PAF]
EC50 (PTAFR): 6.3 nM
EC80 (PTAFR): 320 nM

CCL13
EC50 (CCR3): 8.8 nM
EC80 (CCR3): 210 nM

CCL19
EC50 (CCR7): 9.5 nM
EC80 (CCR7): 230 nM

CCL3/MIP1a
EC50 (CCR1): 8.1 nM
EC80 (CCR1): 570 nM

Chemerin
EC50 (CMKLR1): 1 nM
EC80 (CMKLR1): 93 nM
EC50 (GPR1): 7.3 nM
EC80 (GPR1): 170 nM

B1: XCL1/Lymphotactin (protein, UniProt P47992 22-114, looked up)
Lymphotactin: VGSEVSDKRTCVSLTTQRLPVSRIKTYTITEGSLRAVIFITKRGLKVCADPQATWVRDVVRSMDRKSNTRNNMIQTKPTGTQQSTNTAVTLTG
EC50 (XCR1): 8.8 nM
EC80 (XCR1): 480 nM

B2: CCL22 (protein, UniProt O00626 25-93, looked up)
C-C motif chemokine 22: GPYGANMEDSVCCRDYVRYRLPLRVVKHFYWTSDSCPRPGVVLLTFRDKEICADPRVPWVKMILNKLSQ
EC50 (CCR4): 2.4 nM
EC80 (CCR4): 120 nM

B3: CCL27 (protein, UniProt Q9Y4X3 25-112, looked up)
C-C motif chemokine 27: FLLPPSTACCTQLYRKPLSDKLLRKVIQVELQEADGDCHLQAFVLHLAQRSICIHPQNPSLSQWFEHQERKLHGTLPKLNFGMLRKMG
EC50 (CCR10): 65 nM
EC80 (CCR10): 1700 nM

B4: CXCL16 (protein, UniProt Q9H2A7 30-254, looked up)
C-X-C motif chemokine 16: NEGSVTGSCYCGKRISSDSPPSVQFMNRLRKHLRAYHRCLYYTRFQLLSWSVCGGNKDPWVQELMSCLDLKECGHAYSGIVAHQKHLLPTSPPISQASEGASSDIHTPAQMLLSTLQSTQRPTLPVGSLSSDKELTRPNETTIHTAGHSLAAGPEAGENQKQPEKNAGPTARTSATVPVLCLLAIIFILTAALSYVLCKRRRGQSPQSSPDLPVHYIPVAPDSNT
EC50 (CXCR6): 1.5 nM
EC80 (CXCR6): 130 nM

B5: Complement C5a (protein, UniProt P01031 678-751, looked up)
C5a anaphylatoxin: TLQKKIEEIAAKYKHSVVKKCCYDGACVNNDETCEQRAARISLGPRCIKAFTECCVVASQLRANISHKDMQLGR
modifications: C5a anaphylatoxin
EC50 (C5AR1): 1.3 nM
EC80 (C5AR1): 71 nM
EC50 (C5LR2): 2.2 nM
EC80 (C5LR2): 43 nM

B6: CCL1 (protein, UniProt P22362 24-96, looked up)
C-C motif chemokine 1: KSMQVPFSRCCFSFAEQEIPLRAILCYRNTSSICSNEGLIFKLKRGKEACALDTVGWVQRHRKMLRHCPSKRK
EC50 (CCR8): 40 nM
EC80 (CCR8): 1900 nM

B7: EG VEGF (protein, UniProt P58294 20-105, looked up)
Prokineticin-1: AVITGACERDVQCGAGTCCAISLWLRGLRMCTPLGREGEECHPGSHKVPFFRKRKHHTCPCLPNLLCSRFPDGRYRCSMDLKNINF
EC50 (PROKR1): 49 nM
EC80 (PROKR1): 2400 nM
EC50 (PROKR2): 5.1 nM
EC80 (PROKR2): 410 nM

B8: Fractalkine (protein, UniProt P78423 25-397, looked up)
Fractalkine: QHHGVTKCNITCSKMTSKIPVALLIHYQQNQASCGKRAIILETRQHRLFCADPKEQWVKDAMQHLDRQAAALTRNGGTFEKQIGEVKPRTTPAAGGMDESVVLEPEATGESSSLEPTPSSQEAQRALGTSPELPTGVTGSSGTRLPPTPKAQDGGPVGTELFRVPPVSTAATWQSSAPHQPGPSLWAEAKTSEAPSTQDPSTQASTASSPAPEENAPSEGQRVWGQGQSPRPENSLEREEMGPVPAHTDAFQDWGPGSMAHVSVVPVSSEGTPSREPVASGSWTPKAEEPIHATMDPQRLGVLITPVPDAQAATRRQAVGLLAFLGLLFCLGVAMFTYQSLQGCPRKMAGEMAEGLRYIPRSCGSNSYVLVPV
EC50 (CX3CR1): 0.13 nM
EC80 (CX3CR1): 15 nM
